Measured values from ChEMBL document CHEMBL1201862, “PubChem BioAssay data set” (2004).
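Exposure lasted 48 hours, with cells grown in 96-well plates and compounds tested at five concentrations. Here, GI50 denotes the concentration required for 50% inhibition of growth.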 Activity calls are given as the source filed them. Cut-off read from the data, not from the text of the source: active = GI50 up to about 1.1 µM and inactive = higher.

Legend:
Test in all cases: DTP human tumour cell line panel, 48 h
[1] = test system: OVCAR-4
[2] = test system: HCC 2998
[3] = test system: MOLT-4
[4] = test system: 786-0
[5] = test system: ACHN
[6] = test system: BT-549
[7] = test system: LOX IMVI
[8] = test system: SK-OV-3
[9] = test system: UACC-62
[10] = test system: M14
[11] = test system: UACC-257
[12] = test system: T47D
[13] = test system: Malme-3M
[14] = test system: NCI-H460
[15] = test system: PC-3
[16] = test system: MCF7
[17] = test system: OVCAR-5
[18] = test system: RXF 393
[19] = test system: HCT-15
[20] = test system: NCI-H226
[21] = test system: SK-MEL-5
[22] = test system: IGROV-1
[23] = test system: SNB-19
[24] = test system: UO-31
[25] = test system: MDA-MB-231
[26] = test system: K562
[27] = test system: SK-MEL-28
[28] = test system: COLO 205
[29] = test system: MDA-MB-435
[30] = test system: NCI-H522
[31] = test system: TK-10
[32] = test system: OVCAR-3
[33] = test system: Hs-578T
[34] = test system: CAKI-1
[35] = test system: HOP-92
[36] = test system: A549
[37] = test system: SF-268
[38] = test system: HL-60
[39] = test system: EKVX
[40] = test system: KM12
[41] = test system: NCI-H23
[42] = test system: SR
[43] = test system: SN12C
[44] = test system: MDA-N
[45] = test system: NCI/ADR-RES
[46] = test system: OVCAR-8
[47] = test system: SK-MEL-2
[48] = test system: SW-620
[49] = test system: HOP-62
[50] = test system: HT-29
[51] = test system: SNB-75
[52] = test system: HCT-116
[53] = test system: U-251
[54] = test system: RPMI-8226
[55] = test system: DU-145
[56] = test system: SF-295

SMILES: CCOC(=O)Nc1sc2c(c1C#N)CC(C)CC2 (stereo unspecified)
- GI50 [1]: 18.7 µM (inactive)
- GI50 [2]: 2.24 µM (inactive)
- GI50 [3]: 4.9 µM (inactive)
- GI50 [4]: 10.1 µM (inactive)
- GI50 [5]: 14.7 µM (inactive)
- GI50 [6]: 19.7 µM (inactive)
- GI50 [7]: 10.2 µM (inactive)
- GI50 [8]: 23 µM (inactive)
- GI50 [9]: 4.49 µM (inactive)
- GI50 [10]: 2.66 µM (inactive)
- GI50 [11]: 11 µM (inactive)
- GI50 [12]: 10.5 µM (inactive)
- GI50 [13]: 8.55 µM (inactive)
- GI50 [14]: 3.41 µM (inactive)
- GI50 [15]: 5.35 µM (inactive)
- GI50 [16]: 3.96 µM (inactive)
- GI50 [17]: 16.3 µM (inactive)
- GI50 [18]: 5.38 µM (inactive)
- GI50 [19]: 2.75 µM
- GI50 [20]: 6.15 µM (inactive)
- GI50 [21]: 4.8 µM (inactive)
- GI50 [22]: 7.52 µM (inactive)
- GI50 [23]: 3.16 µM (inactive)
- GI50 [24]: 8.91 µM (inactive)
- GI50 [25]: 5.56 µM (inactive)
- GI50 [26]: 2.38 µM (inactive)
- GI50 [27]: 17.1 µM (inactive)
- GI50 [28]: 4.17 µM (inactive)
- GI50 [29]: 1.32 µM (inactive)
- GI50 [30]: 1.25 µM (inactive)
- GI50 [31]: 6.62 µM (inactive)
- GI50 [32]: 5.87 µM (inactive)
- GI50 [33]: 8.59 µM (inactive)
- GI50 [34]: 21.8 µM (inactive)
- GI50 [35]: 25.4 µM (inactive)
- GI50 [36]: 5.06 µM (inactive)
- GI50 [37]: 10.7 µM (inactive)
- GI50 [38]: 0.1 µM (active)
- GI50 [39]: 24.7 µM (inactive)
- GI50 [40]: 3.9 µM (inactive)
- GI50 [41]: 25.6 µM (inactive)
- GI50 [42]: 1.4 µM (inactive)
- GI50 [43]: 9.62 µM (inactive)
- GI50 [44]: 1.6 µM (inactive)
- GI50 [45]: 1.96 µM (inactive)
- GI50 [46]: 8.75 µM (inactive)
- GI50 [47]: 2.16 µM (inactive)
- GI50 [48]: 4.74 µM (inactive)
- GI50 [49]: 9.79 µM (inactive)
- GI50 [50]: 3.06 µM (inactive)
- GI50 [51]: 2.82 µM (inactive)
- GI50 [52]: 4 µM (inactive)
- GI50 [53]: 5.42 µM (inactive)
- GI50 [54]: 4.86 µM (inactive)
- GI50 [55]: 20.9 µM (inactive)
- GI50 [56]: 11.6 µM (inactive)
